# Experimental data published in patent US20030203373A1 (priority 2002, published 2003).
# Where “and” joins values, the source holds several entries; their conditions need not be identical. Identical values can stand only once.
# Biological target: T1, ACE from pig kidney (Sus scrofa, UniProt F1RRW5)
# T1 construct: 1 mU ACE from pig kidney (EC 3.4.15.1 (Sigma)); purchased Sigma; host or cells: pig kidney (tissue-derived enzyme)
# T1 sequence (F1RRW5 34-1309): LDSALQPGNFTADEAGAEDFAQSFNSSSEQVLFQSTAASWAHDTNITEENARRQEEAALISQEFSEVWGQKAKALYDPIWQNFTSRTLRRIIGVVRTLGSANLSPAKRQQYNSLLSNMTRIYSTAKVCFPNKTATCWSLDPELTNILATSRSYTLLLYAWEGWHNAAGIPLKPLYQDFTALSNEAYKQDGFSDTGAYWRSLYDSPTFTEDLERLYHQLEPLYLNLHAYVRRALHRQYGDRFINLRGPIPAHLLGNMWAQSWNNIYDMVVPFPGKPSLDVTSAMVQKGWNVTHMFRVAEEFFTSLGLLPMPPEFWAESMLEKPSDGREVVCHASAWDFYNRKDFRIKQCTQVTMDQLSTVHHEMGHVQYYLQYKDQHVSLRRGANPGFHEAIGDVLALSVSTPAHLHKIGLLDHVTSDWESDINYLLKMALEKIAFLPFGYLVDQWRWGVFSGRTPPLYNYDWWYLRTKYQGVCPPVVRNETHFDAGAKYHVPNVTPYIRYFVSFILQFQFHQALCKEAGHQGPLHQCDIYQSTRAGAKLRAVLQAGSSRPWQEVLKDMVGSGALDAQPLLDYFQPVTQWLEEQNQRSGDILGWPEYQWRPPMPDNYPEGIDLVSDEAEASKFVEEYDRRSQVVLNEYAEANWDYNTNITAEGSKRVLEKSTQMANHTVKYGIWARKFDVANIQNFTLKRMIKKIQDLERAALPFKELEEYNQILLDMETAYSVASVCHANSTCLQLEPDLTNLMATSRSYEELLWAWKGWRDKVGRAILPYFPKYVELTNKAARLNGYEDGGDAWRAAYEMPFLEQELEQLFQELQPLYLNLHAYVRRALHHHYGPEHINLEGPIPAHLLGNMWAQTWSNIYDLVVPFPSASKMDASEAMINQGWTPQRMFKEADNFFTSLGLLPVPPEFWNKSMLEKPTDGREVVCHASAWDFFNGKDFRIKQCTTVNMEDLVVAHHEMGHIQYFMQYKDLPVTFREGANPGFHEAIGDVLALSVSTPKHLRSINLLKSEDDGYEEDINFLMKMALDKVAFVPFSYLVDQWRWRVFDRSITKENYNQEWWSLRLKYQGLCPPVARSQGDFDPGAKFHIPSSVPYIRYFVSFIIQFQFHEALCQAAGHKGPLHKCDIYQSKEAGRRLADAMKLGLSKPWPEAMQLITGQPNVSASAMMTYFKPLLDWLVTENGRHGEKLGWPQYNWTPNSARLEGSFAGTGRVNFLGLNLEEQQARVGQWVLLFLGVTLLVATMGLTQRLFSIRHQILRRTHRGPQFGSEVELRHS
# Assay: biochemical
# Type: biochemical
# Procedure, shortened: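 Pig kidney ACE (1 mU) in 25 mM HEPES, 0,3 M NaCl, pH 8,2 was mixed with inhibitor solutions (0,35-200 μM) and started with 2 mM hippuryl-histidyl-leucine solution. After 30 min at 22° C the reaction was stopped with NaOH and the product derivatized with ortho-phthalaldehyde for fluorescence. IC50 was read graphically from % inhibition curves.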
# [1] = inhibitor 0.78125 μM, replicates A-D
# [2] = inhibitor 1.5625 μM, replicates A-D
# [3] = inhibitor 3.125 μM, replicates A-D
# [4] = inhibitor 6.25 μM, replicates A-D
# [5] = inhibitor 12.5 μM, replicates A-D
# [6] = inhibitor 25 μM, replicates A-D
# [7] = inhibitor 50 μM, replicates A-D
# [8] = inhibitor 100 μM, replicates A-D
# [9] = inhibitor 200 μM, replicates A-D
smiles,measurement,setting,value
CC(C)C[C@H](NC(=O)[C@H](C)N)C(=O)N[C@@H](CO)C(=O)N1CCC[C@H]1C(=O)N[C@@H](CC(C)C)C(=O)N1CCC[C@H]1C(=O)N[C@@H](CCC(=O)O)C(=O)N[C@H](C(=O)N1CCC[C@H]1C(=O)N1CCC[C@H]1C(=O)O)C(C)C [Peptide S545],IC50,"ACE from pig kidney, determined graphically, read-out: IC50-value (ACE inhibition)",2400 nM
same,fluorescence reading (ACE Inhibitor Assay),"inhibitor 0.39 μM, replicates A-D",811412 and 841911 and 876502 and 774338
same,% inhibition (ACE Inhibitor Assay),"inhibitor 0.39 μM, replicates A-D, 0.39 µM",12.66% and 9.36% and 5.61% and 16.67%
same,fluorescence reading (ACE Inhibitor Assay),[1],726277 and 720995 and 719037 and 692816
same,inhibition at 0.78125 µM,[1],21.9%
same,% inhibition (ACE Inhibitor Assay),"inhibitor 0.78125 μM, replicates A-D, 0.78125 µM",22.45% and 22.66% and 25.5%
same,fluorescence reading (ACE Inhibitor Assay),[2],541353 and 551184 and 577933 and 551569
same,inhibition at 1.5625 µM,[2],41.9%
same,% inhibition (ACE Inhibitor Assay),"inhibitor 1.5625 μM, replicates A-D, 1.5625 µM",40.85% and 37.95% and 40.8%
same,fluorescence reading (ACE Inhibitor Assay),[3],405396 and 408086 and 447790 and 392263
same,inhibition at 3.125 µM,[3],56.6%
same,% inhibition (ACE Inhibitor Assay),"inhibitor 3.125 μM, replicates A-D, 3.125 µM",56.36% and 52.05% and 58.06%
same,fluorescence reading (ACE Inhibitor Assay),[4],251538 and 279216 and 263340 and 250076
same,inhibition at 6.25 µM,[4],73.3%
same,% inhibition (ACE Inhibitor Assay),"inhibitor 6.25 μM, replicates A-D, 6.25 µM",70.3% and 72.02% and 73.46%
same,fluorescence reading (ACE Inhibitor Assay),[5],174037 and 177324 and 175378 and 177772
same,inhibition at 12.5 µM,[5],81.7%
same,% inhibition (ACE Inhibitor Assay),"inhibitor 12.5 μM, replicates A-D, 12.5 µM",81.34% and 81.55% and 81.29%
same,fluorescence reading (ACE Inhibitor Assay),[6],108586 and 113328 and 113458 and 104078
same,inhibition at 25 µM,[6],88.8%
same,% inhibition (ACE Inhibitor Assay),"inhibitor 25 μM, replicates A-D, 25 µM",88.27% and 88.26% and 89.27%
same,fluorescence reading (ACE Inhibitor Assay),[7],53158 and 63009 and 54447 and 48696
same,inhibition at 50 µM,[7],94.8%
same,% inhibition (ACE Inhibitor Assay),"inhibitor 50 μM, replicates A-D, 50 µM",93.72% and 94.65% and 95.27%
same,fluorescence reading (ACE Inhibitor Assay),[8],28035 and 29130 and 30237 and 28568
same,inhibition at 100 µM,[8],97.5%
same,% inhibition (ACE Inhibitor Assay),"inhibitor 100 μM, replicates A-D, 100 µM",97.39% and 97.27% and 97.45%
same,fluorescence reading (ACE Inhibitor Assay),[9],17677 and 17238 and 18084 and 18937
same,inhibition at 200 µM,[9],98.6%
same,% inhibition (ACE Inhibitor Assay),"inhibitor 200 μM, replicates A-D, 200 µM",98.68% and 98.59% and 98.5%
same,fold higher dose necessary in the ACE-assay to reach the same effect as with Captopril,relative to Captopril,1000 fold
